Reference: PMC1559639 (BMC Clinical Pharmacology, 2006)
Where “and” joins values, the source holds several entries; their conditions need not be identical. Identical values can stand only once. Like-named read-outs stand apart in the source and are kept apart here.

Assays:
[1] = Plasma kinetics after single oral dose of 300 mg Pycnogenol in healthy volunteers; assay type: in vivo, human; conditions: for tmax: read-out: tmax (time of maximal plasma concentration); for half-life: read-out: term t½ (terminal half-life) (converted)
Experimental: Eleven volunteers (five female and six male) participated in this study. After a 24 hour diet free of flavonoids (no vegetables, fruits and fruit juices or marmalades, tea, coffee, cocoa, wine and beer) a venous blood catheter was inserted into an antecubital vein and blood samples were drawn to obtain basal values (t = 0 h at 8:00 a.m.). […] After each blood sampling mineral water was served. Blood samples were obtained at t = 0.5 h, 1 h, 2 h, 4 h, 6 h, 8 h, 10 h, 12 h and 14 h. Samples were centrifuged and plasma was aliquoted, shock frozen and stored at -80°C until further analysis.
(§1) Plasma samples of 2.0 mL were prepared for analysis. For determination of total plasma concentration, to each sample 20 U β-glucuronidase (type H-3 from Helix pomatia; EC 3.2.1.31) and 20 U sulfatase (type H-1 from Helix pomatia; EC 3.1.6.1) were added in 50 mM sodium acetate buffer (pH 5.0) and incubated for 2 h at 37°C under gentle shaking. Samples for determination of free plasma concentrations were prepared without prior incubation with enzymes. Each 20 μL of p-hydroxybenzoic acid methylester (100 μg/mL; for HPLC UV detection) and hydrochinone (10 μg/mL; for HPLC electrochemical detection) were added as internal standards and samples were acidified with 100 μL 1 M-HCl. Samples were extracted twice with each 3 mL acetic acid methylester for 20 min, using a roller mixer, followed by centrifugation (20°C) 5 min. The organic phases of both extractions were separated, combined and evaporated to dryness under a gentle stream of nitrogen at 25°C. The resulting residue was reconstituted in 100 μL methanol and subjected to HPLC analysis.
(§2) The HPLC system was a Waters HPLC (Milford, MA, USA) consisted of a 1525 binary pump, a 717plus autosampler, a 2487 dual wavelength absorbance detector set at the detection wavelength of 280 nm and an electrochemical detector CLC 100 (Chromsystems, Munich, Germany) set at an oxidation voltage of 0.5 V. The second detector was connected to the control system by a satellite interface (Waters). Data collection and integration were accomplished using Breeze™ software version 3.30. Analysis was performed on a Zorbax SB C8 column (150 × 4.6 mm I.D., 5 μm particle size, Agilent Technologies, Palo Alto, CA, USA).
(§3) Typically, 20 μL of sample were injected and separated at a flow rate of 1 mL/min. Isocratic elution was performed using water (containing 0.6 mM 1-octanesulfonic acid sodium salt, 0.27 mM ethylenediaminetetraacetic acid disodium salt, 0.04 M triethylamine; pH 2.95 adjusted with phosphoric acid) and acetonitrile (ACN, HPLC gradient quality, Fisher Scientific, Schwerte, Germany). Method A (for UV detection of ferulic acid, M2 (δ-(3-Methoxy-4-hydroxy-phenyl)-γ-valerolactone), U1, U2, U3, U4, U7, U8, and U9) used water/ACN at 85:15 (v/v).

[2] = clinical; assay type: in vivo; conditions: for % conjugated (mean degree of conjugation with sulfate and glucuronic acid): steady state plasma, mean of volunteers; for concentration at 4 h: both sexes, 200 mg
Experimental: Five volunteers (four female and one person) participated in this study. After a 24 hour diet free of flavonoids blood samples were drawn to obtain basal values. […] It was assumed that steady state plasma concentrations were reached after 5 days.
Four hours after the last intake of Pycnogenol on day five a second blood sample was obtained from each volunteer. Again, a 24 hour period of a diet free of flavonoids preceded this blood sampling. Blood samples were centrifuged and plasma was aliquoted, shock frozen and stored at -80°C until further analysis.
as §1, §2, §3

[3] = cited from earlier work; for t½: reported previously
[4] = tested on: MMP-9 release; conditions: in vitro / cell culture assays; read-out: IC50, inhibition of MMP-9 release; cited from earlier work
[5] = both sexes, human, plasma, po, 300 mg, human volunteers, single oral dose 300 mg Pycnogenol, total (free and conjugated) plasma, t = 14 h, mean ± SD, read-out: AUC [0-t]
[6] = both sexes, human, plasma, po, 300 mg, human volunteers, single oral dose 300 mg Pycnogenol, total plasma, mean ± SD, read-out: AUC [t-8]
[7] = both sexes, human, plasma, po, 300 mg, human volunteers, single oral dose 300 mg Pycnogenol, total plasma, mean ± SD, read-out: cmax (maximal plasma concentration)
[8] = both sexes, human, plasma, po, 300 mg, human volunteers, single oral dose 300 mg Pycnogenol, total plasma, mean ± SD
[9] = both sexes, human, plasma, po, 300 mg
[10] = human volunteers, single oral dose 300 mg Pycnogenol, total plasma, mean ± SD
[11] = 200 mg Pycnogenol once daily for five days
[12] = human, plasma, oral, 200 mg Pycnogenol once daily for five days, 4 h after last dose, with sulfatase and glucuronidase, mean ± mean deviation, read-out: Total plasma concentration
[13] = human, plasma, oral, 200 mg Pycnogenol once daily for five days, 4 h after last dose, without enzyme incubation, read-out: Free plasma concentration
[14] = both sexes, human, plasma, oral, 300 mg, single dose 300 mg Pycnogenol, total plasma, read-out: cmax converted to molar concentration
[15] = both sexes, human, plasma, oral, 300 mg

Row | Compound | AUC(0-t) [1, 5] | AUC(0-t) [1, 6] | Cmax [1, 7] | tmax [1, 8] | half-life [1, 9] | tmax (time of maximal plasma concentration) [1, 10] | % conjugated (mean degree of conjugation with sulfate and glucuronic acid) [2, 11] | concentration at 4 h [2, 12] | Cmax [1, 14] | cmax (maximal plasma concentration) [1, 10] | also measured
1 | O=C1c2c(O)cc(O)cc2O[C@H](c2ccc(O)c(O)c2)[C@H]1O (racemic) [Taxifolin, (±)-taxifolin] | 231 ± 86 ng·h/mL | 399 ± 99 ng·h/mL | 33.3 ± 12.5 ng/mL | 8 h | 8.89 ± 2.81 h | 8.2 ± 2.5 h |  |  |  |  | 
2 | O=C(O)Cc1ccc(O)c(O)c1 [3,4-dihydroxyphenylacetic acid] |  |  |  |  |  |  |  |  |  |  | detection of taxifolin degradation products in volunteers' plasma ([1]; after Pycnogenol intake): failed to detect
3 | O=C(O)/C=C/c1ccc(O)c(O)c1 [Caffeic acid, caffeic acid] | 75.7 ± 33.5 ng·h/mL | 82.8 ± 36.5 ng·h/mL | ~17 ng/mL | 3 to 4 h | 4.42 ± 2.47 h | 3.7 ± 2.4 h | 69.4 ± 11.8% | 2.42 ± 1.39 ng/mL | ~90 nM | 16.67 ± 13.29 ng/mL | % conjugated (mean degree of conjugation with sulfate and glucuronic acid) ([2]; 200 mg Pycnogenol once daily for five days, listed as caffeic acid): 69.4% and 69%; concentration at 4 h [2, 13]: 0.56 ± 0.02 ng/mL; individual degree of conjugation ([2]; single volunteers, 200 mg Pycnogenol daily for five days): 59.6% and 61.5% and 87.6%; Cmax ([3]; after ingestion of 107 mg caffeic acid from artichoke leaf extract): 6.5 ng/mL; tmax ([3]; after ingestion of red wine): 2 h; Cmax ([3]; after intake of 55 μg caffeic acid per kg body weight, read-out: cmax): 84 nM; tmax ([3]; after intake of red wine, coffee or artichoke leaf extract): 0.5 to 1 h; t½ [3]: 3.08 ± 1.53 h
4 | Oc1cc(O)c2c(c1)O[C@H](c1ccc(O)c(O)c1)[C@@H](O)C2 [Catechin, (+)-catechin] |  |  | ~100 ng/mL | ≤ 3 h |  | 3.2 ± 1.7 h |  | 48.6 ± 16.7 ng/mL | ~370 nM | 107.22 ± 55.49 ng/mL | concentration at 4 h [2, 13]: 21 ± 13.1 ng/mL; free catechin concentration (share of total) ([2]; both, human, in vivo, 4 h): about 56%; concentration at 0.5 h [1, 15]: ~60 ng/mL; concentration at 4 h [1, 15]: ~100 ng/mL; time window of detection of unchanged compound in plasma ([3]; after a high single dose): between 30 min and 12 h; free polyphenol concentration as share of total concentration ([3]; after a single dose of pure catechin): 1.1 to 6.5%; time by which plasma concentrations were not significantly different from baseline ([3]; after ingestion of pure catechin): ≤ 4 h; tmax ([3]; human plasma, after ingestion of red wine or reconstituted red wine): 1.5 h
5 | COc1cc(/C=C/C(=O)O)ccc1O [Ferulic acid, ferulic acid] | 99 ± 28.1 ng·h/mL | 141 ± 73.9 ng·h/mL | ~15 ng/mL |  | 6.87 ± 3.83 h | 1.2 ± 1.1 h | ≈ 100% |  | ~75 nM | 14.78 ± 5.89 ng/mL | concentration at 4 h ([2]; human, in vivo, read-out: Total plasma concentration): ~20 ng/mL; tmax (time of maximal plasma concentration) ([1]; human volunteers, single oral dose 300 mg Pycnogenol, total plasma, mean ± SD, listed as ferulic acid): 0.5 to 1 h and 1 h; plasma concentrations ([3]; after ingestion of 250 mg ferulic acid from breakfast cereals): 150 to 210 nM; free ferulic acid (share) ([3]; after single ingestion of beer): around 25%; tmax ([3]; other report, ref 6): 0.77 h; tmax ([3]; other report, ref 27): 1 to 3 h; t½ [3]: 6.35 ± 2.95 h
6 | O=C1CCC(Cc2ccc(O)c(O)c2)O1 (centres unmarked) [M1, δ-(3,4-Dihydroxy-phenyl)-γ-valerolactone] |  |  | ~4 ng/mL | ~10 h |  |  | ≈ 100% | 3.01 ng/mL | ~20 nM |  | time of first detection in plasma ([1]; after single dose 300 mg Pycnogenol, first sampling at 0.5 h): 6 h; mean concentration at peak ([1]; around 10 h after single dose 300 mg Pycnogenol, total plasma): 3.59 ng/mL; presence in plasma over the experimental period of 14 h ([1]; single dose 300 mg Pycnogenol): still present 14 h after Pycnogenol ingestion; earliest appearance ([3]; after green tea ingestion): 3 h; time of peak plasma levels ([3]; after ingestion of green tea): 5 to 12 h; IC50 [4]: 500 nM
7 | COc1cc(CC2CCC(=O)O2)ccc1O (centres unmarked) [M2, δ-(3-Methoxy-4-hydroxy-phenyl)-γ-valerolactone] |  |  |  |  |  |  |  |  |  |  | plasma concentration (not detected; lower limit of quantitation) ([1]; after single dose and repeated ingestion of Pycnogenol): < 50 ng/mL; IC50 [4]: 500 nM
8 | Oc1cc(O)cc(O)c1 [phloroglucin] |  |  |  |  |  |  |  |  |  |  | detection of taxifolin degradation products in volunteers' plasma ([1]; human, in vivo): failed to detect
